Test system: P. aeruginosa PA14
Assay: Potentiation of gentamycin on pre-formed biofilm
Format: cell-based, Pseudomonas aeruginosa
Conditions: 9 hr biofilm, M63 + arginine; BIF ~1 μM, Gm 0.1 mg/ml; 14 hours of incubation
Protocol: FIG. 10 is a bar graph showing the ability of purified BIF to potentiate the activity of gentamycin (Gm). A biofilm of P. aeruginosa PA14 was pre-formed by growing the bacteria for 9 hrs in minimal M63 medium supplemented with arginine (0.4%) in 96 well dishes (100 μl of medium per well). After 9 hrs, half of the media was removed and replaced with fresh medium containing Gm (0.1 mg/ml final concentration), BIF (˜1 μM final concentration), or both compounds. The biofilm was quantitated after an additional 14 hrs of incubation.
We predicted that addition of purified BIF might potentiate the effects of antimicrobial compounds. To test this hypothesis, we pre-formed a biofilm of P. aeruginosa by growing the bacteria for 9 hrs by growth in minimal M63 medium supplemented with arginine (0.4%) in 96 well dishes. The preformed biofilms were then treated with BIF alone or BIF plus gentamycin (Gm) at 0.1 mg/ml final concentration. At the concentrations tested, BIF (˜1 μM) and Gm (0.1 mg/ml) had no effect on pre-formed biofilms of P. aeruginosa when these compounds were used individually (FIG. 10).

gentamycin [Gm]
effect on pre-formed biofilms of P. aeruginosa: no effect

— US20020123077A1, “Novel compounds capable of modulating biofilms” (priority 2000, published 2002)
